According to patent US20090036389A1, “Polymeric Micelle Formulations of Hydrophobic Compounds and Methods” (priority 2002, published 2009):

How the values were obtained:
[1] = Drug loading of PEG-b-PCL (5000:4000) micelles, cosolvent evaporation versus dialysis; assay type: physicochemical

Experimental for bovine erythrocytes: EDTA-anticoagulated bovine blood was diluted in PBS, pH=7.2. The erythrocytes were separated by centrifugation for 10 min at 3000 rpm. The supernatant was removed and discarded. The packed cell volume (PCV) was washed three more times with PBS. The PCV was diluted appropriately in PBS to obtain suspensions of 8×10^7 and 1.48×10^8 cells/mL. Cell counts were preformed using an Improved Neubauer Brightline hemacytometer (depth=0.1 mm) from Hausser Scientific (Horsham, Pa.). The AmB/polymer formulations and polymer blanks were brought to room temperature and reconstituted with 1.0 mL of PBS just prior to use. 1.85 mL of the 8×10^7 cells/mL suspension was incubated at 37° C. in a shaking water bath (75 rpm) with 150 μL of AmB/polymer formulation, polymer blank containing no AmB, or PBS buffer (control) for 24 h. […] The supernatant was collected, and hemoglobin content was determined by absorbance at 542 nm. […] Percent hemolysis is reported by 100(Abss-Absb)/(Abs1-Absb) where Abss is the absorbance of the sample, Absb is the average absorbance of the buffer, and Abss is the average absorbance of the lysed samples. […]
An 8 mg/mL AmB in DMSO stock solution was prepared. […] The samples were collected over time, and percent hemolysis was determined as described above.

| Structure (SMILES) | % Yield of Drug ([1]; Cosolvent Evaporation) [%] | % Yield of Drug ([1]; Dialysis) [%] | Final Drug/Polymer Mole Ratio ([1]; Cosolvent Evaporation) | Final Drug/Polymer Mole Ratio ([1]; Dialysis) | time-dependent hemolytic profile / onset of hemolysis (bovine erythrocytes) |
| --- | --- | --- | --- | --- | --- |
| CC(C)OC(=O)C(C)(C)Oc1ccc(C(=O)c2ccc(Cl)cc2)cc1 [Fenofibrate, 2-[4-(4-chlorobenzoyl)phenoxy]-2-methylpropanoic acid 1-methylethyl ester] | 88 | 31 |  |  |  |
| C[C@@H]1[C@H](O)[C@@H](C)/C=C/C=C/C=C/C=C/C=C/C=C/C=C/[C@H](O[C@@H]2O[C@H](C)[C@@H](O)[C@H](N)[C@@H]2O)C[C@@H]2O[C@](O)(C[C@@H](O)C[C@@H](O)[C@H](O)CC[C@@H](O)C[C@@H](O)CC(=O)O[C@H]1C)C[C@H](O)[C@H]2C(=O)O [Free AmB, amphotericin B] | 48 | 25 | 0.11 | 0.055 | immediate hemolysis |
